Laboratory results reported in patent publication US20240190866A1, “POLYHYDROXYLATED INDOLIZIDINE AND PYRROLIZIDINE DERIVATIVES AND USES THEREOF” (Academia Sinica, priority 2021, published 2024).

Experiments:
[1] = target: human Golgi α-mannosidase II (α-hGMII) (Homo sapiens (Human), UniProt Q16706); experiment: Golgi α-mannosidase II (α-hGMII) activity assay, 4-MU-α-D-mannopyranoside substrate; type: biochemical; conditions: pH 7.0, 37° C., 2 h
Procedure: Compounds were diluted to give the final concentration of 100 μM and mixed with 4-MU-α-D-mannopyranoside as substrate and human Golgi α-mannosidase II in phosphate buffer (0.1 M Sodium phosphate dibasic, pH 7.0) or human lysosomal α-mannosidase in citric phosphate buffer (0.1 M Sodium phosphate monobasic monohydrate, 0.5 mM citric acid monohydrate, pH 4.6). The assay was carried out at 37° C. for a certain time (1 h for α-hLM, 2 h for α-hGMII). Stop solution (0.5 M K2CO3(aq), pH 10.8) was then added to the reactions and the fluorescence was determined at 355 nm excitation and 460 nm emission (SpectraMax M5, Molecular Devices). Inhibition was performed as relative enzyme activity to control. The active compounds were selected for libraries preparation and further tested at lower concentration to determine their IC50 values. The assays performed in 384-wells of the microtiter plates.

HepG2 cells = experiment: Anti-proliferative activity assay (MTT); type: cell-based, human; conditions: 72 h
Procedure: (§1) Human liver cancer HepG2 cells and Huh7 cells, breast cancer MDA-MB-231 cells, pancreatic cancer PANC-1 cells, and non-small cell lung (NSCL) cancer H1975 cells were maintained in Dulbecco's Modified Eagle Medium supplemented containing 10% fetal bovine serum (FBS), 100 units/ml penicillin and […] streptomycin in 37° C. incubator with 5% CO2.
(§2) Anti-proliferative activity of HepG2, Huh7 or PANC-1 cells was determined by 3-(4,5-dimethylthiazol-2-yl)-2,5-diphenyltetrazolium bromide (MTT) assay, while that of H1975 or MDA-MB-231 cells was determined by luminescent assay with the aid of commercial kit CellTiter-Glo® (Promega).
(§3) Cancer cells including HepG2, Huh7 and PANC-1 cells were respectively seeded at 10^4, 4×10^3, and 5×10^3 cells/well in 96-well plates and maintained for 14-16 hours. Cells were treated with dimethylsulfoxide (DMSO) or test compounds in varied concentrations for 72 h. Cells were then washed with PBS twice, added a medium containing 3-(4,5-dimethylthiazol-2-yl)-2,5-diphenyltetrazolium bromide (MTT) at a final concentration of 0.5 mg/mL, and incubated for 4 h at 37° C. in a humidified incubator containing 5% CO2 in air. Cells having functional succinate dehydrogenase of mithchondria would convert MTT to formazan. Then, the medium was replaced with 100 μL of DMSO for 30 min at room temperature, and the 96-well plate was read by an ELISA reader at 550 nm to get the absorbance density values. The IC50 values of death cell lines were calculated accordingly.

Huh7 cells [2] = experiment: Anti-proliferative activity assay (MTT); type: cell-based, human; conditions: 72 h
Procedure: as §1, §2, §3

PANC-1 cells = experiment: Anti-proliferative activity assay (MTT); type: cell-based, human; conditions: 72 h
Procedure: as §1, §2, §3

[3] = system: all cancer cell lines (HepG2, Huh7, PANC-1, H1975, MDA-MB-231); experiment: Anti-proliferative activity, pooled statement over all cancer cell lines; type: cell-based, human; conditions: read-out: half maximum inhibitory concentration (IC50), range in all cancer cell lines
Procedure: as §2, §3
For H1975 and MDA-MB-231, cells were respectively seeded at 5×10^3 cells/well in 96-well plates and maintained for 14-16 hours. Cells were treated with dimethylsulfoxide (DMSO) or test compounds in varied concentrations for 48 h. Cell viability was monitored using Cell-TiterGlo (Promega), a kit that measures the quantity of ATP present in the cell culture, an indicator of metabolically active cells. The IC50 values of death cell lines were calculated accordingly.

Huh7 cells [4] = experiment: Surface binding of lectin by fluorescence microscopy; type: cell-based, human; conditions: Huh7, 10 μM, 48 h
[5] = Serum biochemistry assay in Huh7 xenograft mice; type: in vivo, NOD-SCID mice; conditions: serum, 30 mg/kg i.p., twice a week
Procedure: All blood specimens were collected in tubes and were left at 25° C. for 30 min to clot and centrifuged for 10 min at 1200 g. The concentrations of the following biochemical serum analytes collected were measured with FUJI DRI-CHEM 500i analyzer (FUJIFILM Corp., Tokyo, Japan) using the manufacturer's reagents and according to the manufacturer's instructions: Alanine Aminotransferase ALT), Aspartate Aminotransferase (AST), Blood Urea Nitrogen (BUN), Creatinine (CRE) and Total Bilirubin (TBIL).
HCC xenografts were established in 5-6 weeks old NOD-SCID mice by subcutaneous inoculation of about 5×10^6 Huh7 cells suspended in 50 μL PBS+50 μL, Matrigel (Corning, 394230) in the left and right flanks of each mouse. After one week of inoculation, tumors were palpable and the mice were assigned randomly to 1 of 4 treatment groups. Group 1 (vehicle control group, n=6) mice only received a vehicle solution containing Kolliphor EL (Sigma Aldrich, C5135), 99.9% ethanol and water in a ratio of 1:1:6. Groups 2, 3, 4 and 5 mice were intraperitoneally injected with the test compound (e.g., compound ACK900, ACK901, or ACK902) (30 mg/kg, ip, n=7/group) or sorafenib (30 mg/kg, ip, n=6/group), twice per week for 25 days. The tumor volume was calculated by the formula of a ratioinal ellipsoid: [0.5236×short axis) m1^2×(long axis)m^2], and the tumor volume was measured twice per week. All mice were sacrificed at 27 days after the treatment started. Tumor tissues were isolated, photographed and weighted.
In vivo tumor growth inhibition studies in human Huh7 xenograft rodents were performed in accordance with procedures as described in the “Material and Method” section. Xenograft tumors were generated by implanting Huh7 cells (5×10^6) subcutaneously into the left and right flanks of each NOD-SCID mouse. Starting on the 7th day after the inoculation of Huh7 cells, the mice were injected with ACK900, ACK901, ACK902 or sorafenib intraperitoneally (i.p.) at a dose of 30 mg/kg and twice a week for 34 days.

Sequence of human Golgi α-mannosidase II (α-hGMII) (Q16706 whole entry): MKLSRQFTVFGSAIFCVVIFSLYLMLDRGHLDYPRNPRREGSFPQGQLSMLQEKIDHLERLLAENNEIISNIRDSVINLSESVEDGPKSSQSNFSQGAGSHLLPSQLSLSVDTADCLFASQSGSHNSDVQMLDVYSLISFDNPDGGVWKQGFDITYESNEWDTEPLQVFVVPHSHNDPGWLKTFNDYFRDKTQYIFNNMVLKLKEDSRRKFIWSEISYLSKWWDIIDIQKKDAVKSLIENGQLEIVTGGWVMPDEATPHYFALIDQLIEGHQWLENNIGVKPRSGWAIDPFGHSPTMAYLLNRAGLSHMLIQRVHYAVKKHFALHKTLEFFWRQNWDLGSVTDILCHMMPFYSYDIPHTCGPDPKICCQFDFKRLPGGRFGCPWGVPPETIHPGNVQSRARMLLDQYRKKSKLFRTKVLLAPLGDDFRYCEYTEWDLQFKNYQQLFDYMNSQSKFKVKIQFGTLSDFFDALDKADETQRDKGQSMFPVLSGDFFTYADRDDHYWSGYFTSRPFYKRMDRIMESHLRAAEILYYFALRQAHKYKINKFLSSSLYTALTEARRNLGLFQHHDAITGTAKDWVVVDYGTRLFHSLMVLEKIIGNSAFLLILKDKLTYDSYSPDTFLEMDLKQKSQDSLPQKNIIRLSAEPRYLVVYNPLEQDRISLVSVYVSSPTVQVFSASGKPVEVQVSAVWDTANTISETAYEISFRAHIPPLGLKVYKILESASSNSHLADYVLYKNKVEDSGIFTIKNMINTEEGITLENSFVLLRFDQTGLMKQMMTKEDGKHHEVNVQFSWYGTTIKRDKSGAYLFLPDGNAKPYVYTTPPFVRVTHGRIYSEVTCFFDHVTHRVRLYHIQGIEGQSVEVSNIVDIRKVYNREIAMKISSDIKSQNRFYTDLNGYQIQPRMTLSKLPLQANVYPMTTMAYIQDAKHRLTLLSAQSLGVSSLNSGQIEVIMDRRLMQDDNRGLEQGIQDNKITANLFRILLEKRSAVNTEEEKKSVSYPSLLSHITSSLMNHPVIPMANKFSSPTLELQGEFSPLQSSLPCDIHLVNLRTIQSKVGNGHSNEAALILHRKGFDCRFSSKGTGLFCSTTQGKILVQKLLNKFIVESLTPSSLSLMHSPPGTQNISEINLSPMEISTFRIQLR

- IC50 [1]: 0.1 µM
- IC50 (HepG2 cells): 5.9 µM
- IC50 (Huh7 cells [2]): 7.8 µM
- IC50 (PANC-1 cells): 14.5 µM
- IC50 [3]: 0.3 to 19.1 µM
- BUN [5]: 22.37 ± 4.41 mg/dL
- CRE [5]: 0.33 ± 0.05 mg/dL
- TBIL [5]: 0.55 ± 0.18 mg/dL
Structure (SMILES): CCC[C@H]1CC[C@H](c2ccc(NC(=S)NC[C@@H]3[C@@H](O)[C@@H](O)[C@H]4[C@H](O)CCCN43)cc2)CC1 [ACK900]
- surface binding of Concanavalin A (ConA) (Huh7 cells [4]): markedly increased
- surface binding of galectin-1 (Gal1) (Huh7 cells [4]): substantially decreased
- ALT [5]: 101.57 ± 70.63 U/L
- AST [5]: 223.42 ± 157.00 U/L
